From paper PMC9074039, “Molecular analysis and essentiality of Aro1 shikimate biosynthesis multi-enzyme in Candida albicans” (Life Science Alliance, 2022)

Columns and labels:
Aro1EPSPS = target: T1, Aro1EPSPS (Candida albicans, UniProt Q5AME2); assay: X-ray crystal structure, […] A; assay type: binding; conditions: co-crystallised with 1 mM shikimate-3-phosphate, pH 8; closed conformation
T1 construct: gene ARO1; EPSPS domain, residues 387-844, expressed in E. coli BL21(DE3) Gold, His6-TEV tag cut; strain SC5314 printed for the full-length clone pLC1335
T1 sequence (Q5AME2 387-844): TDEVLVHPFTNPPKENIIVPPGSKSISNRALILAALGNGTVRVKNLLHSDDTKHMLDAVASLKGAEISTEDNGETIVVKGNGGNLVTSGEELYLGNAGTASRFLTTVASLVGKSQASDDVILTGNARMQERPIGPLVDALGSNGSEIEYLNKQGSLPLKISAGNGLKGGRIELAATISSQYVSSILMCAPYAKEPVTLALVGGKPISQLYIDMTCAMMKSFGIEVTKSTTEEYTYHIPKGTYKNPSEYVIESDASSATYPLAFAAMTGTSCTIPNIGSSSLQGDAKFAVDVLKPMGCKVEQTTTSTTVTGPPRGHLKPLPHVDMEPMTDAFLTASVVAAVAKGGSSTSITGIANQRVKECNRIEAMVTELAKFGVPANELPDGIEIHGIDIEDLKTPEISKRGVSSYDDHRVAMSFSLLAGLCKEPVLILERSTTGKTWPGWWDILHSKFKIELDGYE

Aro1DHQS = target: T2, Aro1DHQS (Candida albicans, UniProt Q5AME2); assay: X-ray crystal structure, […] A; assay type: binding; conditions: co-crystallised with 2 mM NADH and 0.5 mM ZnCl2; one NADH per chain
T2 construct: gene ARO1; N-terminal DHQS domain, residues 1-387, expressed in E. coli BL21(DE3) Gold, His6-TEV tag cut; dimer in crystal; strain SC5314 printed for the full-length clone pLC1335
T2 sequence (Q5AME2 1-387): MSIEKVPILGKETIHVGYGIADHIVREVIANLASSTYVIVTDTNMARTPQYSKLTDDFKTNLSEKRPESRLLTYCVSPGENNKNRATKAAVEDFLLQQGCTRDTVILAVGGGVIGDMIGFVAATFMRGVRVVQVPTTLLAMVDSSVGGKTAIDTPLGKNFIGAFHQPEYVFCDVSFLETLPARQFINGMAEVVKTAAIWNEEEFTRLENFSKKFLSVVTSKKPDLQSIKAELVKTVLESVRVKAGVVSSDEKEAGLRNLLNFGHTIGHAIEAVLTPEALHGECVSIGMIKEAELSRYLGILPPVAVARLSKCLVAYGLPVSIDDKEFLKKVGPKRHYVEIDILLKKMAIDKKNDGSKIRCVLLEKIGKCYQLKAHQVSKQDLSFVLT

| SMILES | X-ray crystal structure, 1.85 A (Aro1EPSPS) | X-ray crystal structure, 1.85 A (Aro1DHQS) |
| --- | --- | --- |
| O=C(O)C1=C[C@@H](OP(=O)(O)O)[C@@H](O)[C@H](O)C1 [S3P, shikimate-3-phosphate] | additional electron density corresponding to a molecule of this substrate in the cleft |  |
| NC(=O)C1=CN([C@@H]2O[C@H](COP(=O)(O)OP(=O)(O)OC[C@H]3O[C@@H](n4cnc5c(N)ncnc54)[C@H](O)[C@@H]3O)[C@@H](O)[C@H]2O)C=CC1 [NADH] |  | one NADH molecule bound to each copy of this fragment |
